What is called IC50 is the concentration at which inhibition is half-maximal.

Structures can show the parent of a compound that is named as a salt. Where two headings read alike, the source gives them in different places.

The values below come from patent US20050101595A1, “N-containing cycloalkyl-substituted amino-thiazole derivatives and pharmaceutical compositions for inhibiting cell proliferation and methods for their use” (PFIZER INC., priority 2003, published 2005).

Test [1] concerns the target CDK2/Cyclin A (Homo sapiens, UniProt P24941). Nature of the test: Inhibition of CDK2/Cyclin A Retinoblastoma Kinase Activity. The format is biochemical. Conditions: for Ki: apparent Ki, CDK2/proteolyzed cyclin A, Rb fragment substrate, 25 μM ATP. The method in brief: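 Radiometric filter-binding readout of phosphate transfer to an Rb substrate fragment by purified CDK2/truncated cyclin A at 10 or 19 nM. Run at pH 7.4 with 25 μM ATP, 30 °C, 60–75 min, linear rates; background without enzyme subtracted, Ki from competitive-inhibition models.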

The test system of test [2] is HCT-116 cell line. Nature of the test: Inhibition of cell growth, tetrazolium salt (MTT) assay. The note with it: for HCT-116 % Inhibition at 0.25 μM: 0.25 μM compound; for IC50: Homo sapiens, HCT-116, 120 h, MTT, three to five days, read-out: HCT-116 IC50. The format is cell-based. The method in brief: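 First, cells were seeded in McCoy's 5A medium and held 4 h. Next, inhibitor concentrations in 0.5% (v/v) DMSO were applied for three to five days at 37° C, 5% CO2. Finally, after 4 h with 0.2 mg/mL MTT and medium removal, solubilized formazan was measured at 540 nm.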

The target in test [3] is human CDK4 and genetically truncated (1-264) cyclin D3 (Homo sapiens, UniProt P11802). Nature of the test: Inhibition of CDK4/Cyclin D Retinoblastoma Kinase Activity. Conditions: for Ki: apparent Ki, CDK4/truncated cyclin D3, Rb fragment substrate, 25 μM ATP. The format is biochemical. The method in brief: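 Apparent Ki values come from competitive or competitive tight-binding inhibition fits of background-corrected 32P/33P incorporation into His-tagged Rb fragment (386-928), captured on nitrocellulose. Reaction: 5 nM insect-cell-expressed human CDK4 with cyclin D3 (1-264), 25 μM ATP, pH 7.4 HEPES, 2% DMSO, 30° C., 20 min, extended to 60 min for tight-binding inhibitors.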
Chain of human CDK4 and genetically truncated (1-264) cyclin D3 (P11802 whole entry, the tested form may be a part): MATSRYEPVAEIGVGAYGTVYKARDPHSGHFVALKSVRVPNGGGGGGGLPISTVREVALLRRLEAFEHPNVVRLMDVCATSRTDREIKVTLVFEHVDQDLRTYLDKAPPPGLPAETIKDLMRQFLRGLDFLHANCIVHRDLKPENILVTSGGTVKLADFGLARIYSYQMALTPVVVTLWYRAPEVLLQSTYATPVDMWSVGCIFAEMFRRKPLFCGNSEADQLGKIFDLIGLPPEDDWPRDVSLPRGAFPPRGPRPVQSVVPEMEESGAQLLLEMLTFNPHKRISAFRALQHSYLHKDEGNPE
Chain of human CDK4 and genetically truncated (1-264) cyclin D3 (P30281 1-264 partner): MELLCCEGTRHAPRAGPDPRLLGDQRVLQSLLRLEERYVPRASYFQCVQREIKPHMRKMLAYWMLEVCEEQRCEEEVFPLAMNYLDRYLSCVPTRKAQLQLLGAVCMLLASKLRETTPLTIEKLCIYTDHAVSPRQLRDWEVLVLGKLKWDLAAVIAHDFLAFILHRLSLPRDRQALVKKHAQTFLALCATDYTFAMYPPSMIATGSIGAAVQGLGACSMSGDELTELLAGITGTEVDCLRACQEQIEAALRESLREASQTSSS

Setting [4] is: 0.1 μM compound, HCT-116, Table 4.
Setting [5] is: 0.1 μM compound, HCT-116, Table 3.

In the case of `CC(C)(Oc1ccc(Cl)cc1)C(=O)N1CCC(Nc2nc(N)c(C(=O)c3c(F)cccc3F)s2)CC1` [Example R66], the “CDK2 % Inhibition at 0.03 μM” value in test [1] (at 0.03 μM) is reported as 16%. Further, in test [2] (HCT-116 cells, at 0.1 μM), the “HCT-116 % Inhibition at 0.1 μM” value is given as 0.54%. The “HCT-116 5 Inhibition at 0.25 μM” value in test [2] (HCT-116 cells) is on record as 42. Also, the “CDK4 % Inhibition at 0.03 μM” value in test [3] (at 0.03 μM) is 27%.

`Nc1nc(NC2CCN(C(=O)c3ccncc3)CC2)sc1C(=O)c1c(F)cccc1F` [Example Q81]: the “CDK2 % Inhibition at 0.03 μM” value in test [1] (0.03 μM compound, Table 4) is listed as 6%. Further, the “HCT-116 % Inhibition at 0.1 μM” value in test [2] (setting [4]) stood at 4%. In addition, the “HCT-116 % Inhibition at 0.25 μM” value in test [2] (HCT-116, Table 4) stood at 37%. The “CDK4 % Inhibition at 0.03 μM” value in test [3] (0.03 μM compound, Table 4) worked out at 19%.

Take `CC(C(=O)N1CCC(Nc2nc(N)c(C(=O)c3c(F)cccc3F)s2)CC1)c1ccccc1` (stereo not drawn) [Example R160]: in test [1] (at 0.03 μM), the “CDK2 % Inhibition at 0.03 μM” value is recorded as 7%. The “HCT-116 % Inhibition at 0.1 μM” value in test [2] (HCT-116 cells, at 0.1 μM) is reported as 0%. Besides, in test [2] (HCT-116 cells), the “HCT-116 5 Inhibition at 0.25 μM” value came out at 37. Moreover, the “CDK4 % Inhibition at 0.03 μM” value in test [3] (at 0.03 μM) is listed as 6%.

Take `Nc1nc(NC2CCN(S(=O)(=O)c3ccc(CCN4C[C@@H]5[C@@H](N)[C@@H]5C4)nc3)CC2)sc1C(=O)c1c(F)cccc1F` [Example N10, [4-Amino-2-(1-{6-[2-(1α, 5β, 6γ-amino-3-aza-bicyclo[3.1.0]hex-3-yl)-ethyl]-pyridine-3-sulfonyl}-piperidin-4-ylamino)-thiazol-5-yl]-(2,6-difluoro-phenyl)-methanone Hydrochloride Salt.]: the Ki in test [1] amounted to 1.3 nM; in test [3], 0.21 nM. For the same compound, the 50% inhibitory concentration (IC50) in test [2] (first HCT-116 column (c4)) is 380 nM; in test [2] (second HCT-116 column (c5)), 3000 nM.

Turning to `Cc1cc(C)c(C(=O)N2CCC(Nc3nc(N)c(C(=O)c4c(F)cccc4F)s3)CC2)c(C)c1` [Example R127], the “CDK2 % Inhibition at 0.03 μM” value in test [1] (at 0.03 μM) is 28%. In addition, in test [2] (HCT-116 cells, at 0.1 μM), the “HCT-116 % Inhibition at 0.1 μM” value came to 0%. Moreover, the “HCT-116 5 Inhibition at 0.25 μM” value in test [2] (HCT-116 cells) was 36. For the same compound, the “CDK4 % Inhibition at 0.03 μM” value in test [3] (at 0.03 μM) is 20%.

For `Cc1ccc(NC(=O)N2CCC(Nc3nc(N)c(C(=O)c4c(F)cccc4F)s3)CC2)cc1` [Example O24], the “CDK2 % Inhibition At 0.03 μM” value in test [1] (0.03 μM compound, Table 2) is 34%. In test [2] (HCT-116, Table 2), the “HCT-116 % Inhibition at 0.25 μM” value stood at 6%. In addition, the “CDK4 % Inhibition at 0.03 μM” value in test [3] (0.03 μM compound, Table 2) is reported as 21%.

With `COc1cccc(CC(=O)N2CCC(Nc3nc(N)c(C(=O)c4c(F)cccc4F)s3)CC2)c1` [Example Q79], the “CDK2 % Inhibition at 0.03 μM” value in test [1] (0.03 μM compound, Table 4) is recorded as 51%. Moreover, the “HCT-116 % Inhibition at 0.1 μM” value in test [2] (setting [4]) is given as 5%. For the same compound, the “HCT-116 % Inhibition at 0.25 μM” value in test [2] (HCT-116, Table 4) came to 33%. For the same compound, the “CDK4 % Inhibition at 0.03 μM” value in test [3] (0.03 μM compound, Table 4) is recorded as 59%.

Take `CN(C)CCc1ccc(S(=O)(=O)N2CCC(Nc3nc(N)c(C(=O)c4c(F)cccc4F)s3)CC2)cn1` [Example N11, (4-Amino-2-{1-[6-(2-dimethylamino-ethyl)-pyridine-3-sulfonyl]-piperidin-4-ylamino}-thiazol-5-yl)-(2,6-difluoro-phenyl)-methanone TFA Salt.]: the Ki worked out at 1.6 nM in test [1] and 0.39 nM in test [3]. Further, the half-maximal inhibitory concentration (IC50) in test [2] (first HCT-116 column (c4)) is 140 nM; in test [2] (second HCT-116 column (c5)), 1600 nM.

In the case of `CC1CCCC(NCCS(=O)(=O)N2CCC(Nc3nc(N)c(C(=O)c4c(F)cccc4F)s3)CC2)C1` (mixture of isomers) [Example K43, (4-Amino-2-{1-[2-(3(cis/trans)-methyl-cyclohexylamino)-ethanesulfonyl]-piperidin-4-ylamino}-thiazol-5-yl)-(2,6-difluoro-phenyl)-methanone], the Ki was found to be 0.57 nM in test [1] and 2.4 nM in test [3]. Also, the half-inhibitory concentration (IC50) in test [2] (first HCT-116 column (c4)) turned out to be 51 nM; in test [2] (second HCT-116 column (c5)) it was 300 nM.

Turning to `CC(=O)Nc1ccc(S(=O)(=O)N2CCC(Nc3nc(N)c(C(=O)c4c(F)cccc4F)s3)CC2)cc1` [Example P17], the “CDK2 % Inhibition at 0.03 μM” value in test [1] (0.03 μM compound, Table 3) turned out to be 77%. Besides, the “HCT-116 % Inhibition at 0.1 μM” value in test [2] (setting [5]) amounted to 14%. Also, the “HCT-116 % Inhibition at 0.25 μM” value in test [2] (HCT-116, Table 3) stood at 36%. Further, in test [3] (0.03 μM compound, Table 3), the “CDK4 % Inhibition at 0.03 μM” value was found to be 78%.

In the case of `CC(=O)Oc1ccccc1C(=O)N1CCC(Nc2nc(N)c(C(=O)c3c(F)cccc3F)s2)CC1` [Example Q14], the “CDK2 % Inhibition at 0.03 μM” value in test [1] (0.03 μM compound, Table 4) was 59%. Besides, the “HCT-116 % Inhibition at 0.1 μM” value in test [2] (setting [4]) was 15%. The “HCT-116 % Inhibition at 0.25 μM” value in test [2] (HCT-116, Table 4) was 45%. For the same compound, the “CDK4 % Inhibition at 0.03 μM” value in test [3] (0.03 μM compound, Table 4) came to 80%.

With `COc1cccc(C(=O)N2CCC(Nc3nc(N)c(C(=O)c4c(F)cccc4F)s3)CC2)c1OC` [Example R115], the “CDK2 % Inhibition at 0.03 μM” value in test [1] (at 0.03 μM) stood at 42%. Moreover, the “HCT-116 % Inhibition at 0.1 μM” value in test [2] (HCT-116 cells, at 0.1 μM) stood at 0%. For the same compound, the “HCT-116 5 Inhibition at 0.25 μM” value in test [2] (HCT-116 cells) came out at 49. Further, the “CDK4 % Inhibition at 0.03 μM” value in test [3] (at 0.03 μM) is reported as 58%.

On to `Nc1nc(NC2CCN(S(=O)(=O)c3cccc(Br)c3)CC2)sc1C(=O)c1c(F)cccc1F` [Example P46], for which the “CDK2 % Inhibition at 0.03 μM” value in test [1] (0.03 μM compound, Table 3) is 59%. Also, in test [2] (setting [5]), the “HCT-116 % Inhibition at 0.1 μM” value stood at 10%. For the same compound, the “HCT-116 % Inhibition at 0.25 μM” value in test [2] (HCT-116, Table 3) was 20%. The “CDK4 % Inhibition at 0.03 μM” value in test [3] (0.03 μM compound, Table 3) came out at 68%.
